Our source for the % of inhibition, IC50 and Ki values is ChEMBL document CHEMBL5465560, “Selectivity Literature for EUbOPEN Chemogenomic Library” (2024).

The target in test [1] is CDK5/Cyclin D3 (Homo sapiens) (UniProt Q00535+P30281). The experiment in a line: (§1) Selectivity interaction (Kinase panel (literature)) EUB0001623a CDK5. The class given is protein-complex assay. Particulars: at 1 µM.
The target of test [2] is CDK7/Cyclin H/MNAT1 (Homo sapiens) (UniProt P51946+P50613+P51948). The experiment in a line: Selectivity interaction (Kinase panel (literature)) EUB0001623a CDK7. Particulars: at 1 µM. In kind it is protein-complex assay.
In test [3] the target is Cyclin-dependent kinase 9 (Homo sapiens, UniProt P50750). The test is described as follows: Selectivity interaction (Reporter displacement assay) EUB0001623a CDK9.
Test [4] has as its target T1, Receptor-type tyrosine-protein kinase FLT3 (Homo sapiens, UniProt P36888).
T1 sequence (P36888 whole entry): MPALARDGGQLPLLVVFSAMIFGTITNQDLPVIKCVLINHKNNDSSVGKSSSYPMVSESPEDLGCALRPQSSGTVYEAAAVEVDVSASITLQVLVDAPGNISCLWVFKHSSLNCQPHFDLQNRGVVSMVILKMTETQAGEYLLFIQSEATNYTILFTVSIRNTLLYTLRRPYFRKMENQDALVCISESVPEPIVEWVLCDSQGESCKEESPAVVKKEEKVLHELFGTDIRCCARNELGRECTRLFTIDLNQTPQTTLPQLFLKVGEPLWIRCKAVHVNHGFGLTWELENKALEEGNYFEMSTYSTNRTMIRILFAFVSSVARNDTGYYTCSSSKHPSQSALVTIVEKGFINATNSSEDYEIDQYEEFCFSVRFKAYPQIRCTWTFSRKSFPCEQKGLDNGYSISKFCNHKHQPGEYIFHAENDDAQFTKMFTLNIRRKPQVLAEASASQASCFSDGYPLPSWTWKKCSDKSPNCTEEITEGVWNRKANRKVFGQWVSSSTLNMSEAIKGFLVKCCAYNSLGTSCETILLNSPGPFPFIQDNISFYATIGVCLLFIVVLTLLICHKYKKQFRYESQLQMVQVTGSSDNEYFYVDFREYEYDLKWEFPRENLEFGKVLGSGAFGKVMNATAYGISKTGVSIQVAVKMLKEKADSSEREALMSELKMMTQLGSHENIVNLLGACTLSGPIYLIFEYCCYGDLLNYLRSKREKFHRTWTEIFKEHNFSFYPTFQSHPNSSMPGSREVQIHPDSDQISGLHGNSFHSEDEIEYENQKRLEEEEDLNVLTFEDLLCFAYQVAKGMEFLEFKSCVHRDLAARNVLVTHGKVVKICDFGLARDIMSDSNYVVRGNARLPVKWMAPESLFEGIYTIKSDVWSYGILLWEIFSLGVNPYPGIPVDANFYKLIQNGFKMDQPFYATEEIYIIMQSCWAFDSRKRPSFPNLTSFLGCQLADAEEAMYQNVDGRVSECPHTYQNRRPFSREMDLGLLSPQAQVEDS
The test is described as follows: Selectivity interaction (Kinase panel (literature)) EUB0001623a FLT3.

Test [5] has as its target Cyclin-dependent kinase 5 (Homo sapiens, UniProt Q00535). Described as §1. To be noted: at 1 µM.
The target in test [6] is CDK6/cyclin D3 (Homo sapiens) (UniProt P30281+Q00534). The test is described as follows: Selectivity interaction (Kinase panel (literature)) EUB0001623a CDK6. In kind it is protein-complex assay. To be noted: at 1 µM.
The target in test [7] is Cyclin-dependent kinase 2/cyclin E (Homo sapiens) (UniProt P24864+P24941+O96020). To be noted: at 1 µM.
The target of test [8] is Adenosine receptor A1 (Homo sapiens) (UniProt P30542). The experiment in a line: Selectivity interaction (CEREP panel (binding assay, receptors and ion channels)) EUB0001623a ADORA1. To be noted: at 1 µM.
In test [9] the target is Cyclin-dependent kinase 2/cyclin A (Homo sapiens) (UniProt P24941+P20248+P78396). The experiment in a line: Selectivity interaction (Kinase panel (literature)) EUB0001623a CDK2. The class given is protein-complex assay. Particulars: at 1 µM.
For test [10], the target named is Ribosomal protein S6 kinase beta-1 (Homo sapiens, UniProt P23443). The experiment in a line: Selectivity interaction (Kinase panel (literature)) EUB0001623a RPS6KB1. To be noted: at 1 µM.
The target in test [11] is Cyclin-dependent kinase 3 (Homo sapiens) (UniProt Q00526). To be noted: at 1 µM.
Test [12] concerns the target T2, D(2) dopamine receptor (Homo sapiens, UniProt P14416). The experiment in a line: (§2) Selectivity interaction (CEREP panel (binding assay, receptors and ion channels)) EUB0001623a DRD2.
Test [13] deals with Cyclin-dependent kinase 1/cyclin B (Homo sapiens) (UniProt P06493+P14635+Q8WWL7+O95067). The test is described as follows: Selectivity interaction (Kinase panel (literature)) EUB0001623a CDK1. To be noted: at 1 µM. In kind it is protein-complex assay.
Test [14] has as its target Cyclin-dependent kinase 8 (Homo sapiens, UniProt P49336). The experiment in a line: Selectivity interaction (Reporter displacement assay) EUB0001623a CDK8.
For test [15], the target named is T2, D(2) dopamine receptor. Described as §2. To be noted: at 1 µM.
Test [16] has as its target CDK9/cyclin T1 (Homo sapiens) (UniProt O60563+P50750). The experiment in a line: Selectivity interaction (Kinase panel (literature)) EUB0001623a CDK9. In kind it is protein-complex assay. Particulars: at 1 µM.
Test [17] addresses NT-3 growth factor receptor (Homo sapiens, UniProt Q16288). The experiment in a line: Selectivity interaction (Kinase panel (literature)) EUB0001623a NTRK3.
Test [18] has as its target T3, Serine/threonine-protein kinase Sgk1 (Homo sapiens) (UniProt O00141).
T3 sequence (whole entry): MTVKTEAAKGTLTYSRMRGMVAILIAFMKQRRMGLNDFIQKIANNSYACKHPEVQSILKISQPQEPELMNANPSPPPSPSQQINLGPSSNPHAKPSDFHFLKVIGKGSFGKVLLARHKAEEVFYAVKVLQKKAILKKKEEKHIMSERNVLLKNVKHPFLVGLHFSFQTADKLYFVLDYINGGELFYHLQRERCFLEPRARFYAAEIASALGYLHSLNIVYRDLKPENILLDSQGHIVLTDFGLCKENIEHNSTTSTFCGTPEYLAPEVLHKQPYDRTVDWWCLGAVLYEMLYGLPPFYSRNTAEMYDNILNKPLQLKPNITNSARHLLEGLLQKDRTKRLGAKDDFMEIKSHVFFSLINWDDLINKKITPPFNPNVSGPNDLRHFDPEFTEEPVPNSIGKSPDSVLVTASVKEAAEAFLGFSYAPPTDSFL
The test is described as follows: Selectivity interaction (Kinase panel (literature)) EUB0001623a SGK1. Particulars: at 1 µM.

Test [19] has as its target T4, Cyclin-dependent kinase 12 (Homo sapiens, UniProt Q9NYV4). The test is described as follows: Selectivity interaction (Western blot assay (pull-down blockage of CDK7-cyclin H using lysates from HAP1 cells)) EUB0001635a CDK12. In kind it is cell-based.
Test [20] has as its target T5, Cyclin-dependent kinase 7 (Homo sapiens, UniProt P50613). The experiment in a line: Selectivity interaction (Western blot assay (pull-down blockage of CDK7-cyclin H using lysates from HAP1 cells)) EUB0001635a CDK7. In kind it is cell-based.
Test [21] addresses T4, Cyclin-dependent kinase 12. The test is described as follows: Selectivity interaction (Radioactive kinase activity assay) EUB0001635a CDK12.
Test [22] concerns the target T4, Cyclin-dependent kinase 12. The experiment in a line: Selectivity interaction (Western blot assay (pull-down blockage of CDK7-cyclin H using lysates from Jurkat cells)) EUB0001635a CDK12. The class given is subcellular, lysate.
Test [23] deals with T5, Cyclin-dependent kinase 7. The experiment in a line: Selectivity interaction (Electrophoretic mobility shift assay) EUB0001635a CDK7.
Test [24] has as its target Cyclin-dependent kinase 7 (Homo sapiens, UniProt P50613, C312S). The test is described as follows: Selectivity interaction (Radioactive kinase assays (from cellular C312S flag-tagged CDK7 immunoprecipitated in HeLa cells)) EUB0001635a CDK7. The class given is cell-based.
Test [25] has as its target T5, Cyclin-dependent kinase 7. The experiment in a line: Selectivity interaction (Western blot assay (pull-down blockage of CDK7-cyclin H using lysates from Jurkat cells)) EUB0001635a CDK7. In kind it is subcellular, lysate.
The target of test [26] is T6, Cyclin-dependent kinase 13 (Homo sapiens, UniProt Q14004). The experiment in a line: Selectivity interaction (Radioactive kinase activity assay) EUB0001635a CDK13.
T6 sequence (Q14004 whole entry): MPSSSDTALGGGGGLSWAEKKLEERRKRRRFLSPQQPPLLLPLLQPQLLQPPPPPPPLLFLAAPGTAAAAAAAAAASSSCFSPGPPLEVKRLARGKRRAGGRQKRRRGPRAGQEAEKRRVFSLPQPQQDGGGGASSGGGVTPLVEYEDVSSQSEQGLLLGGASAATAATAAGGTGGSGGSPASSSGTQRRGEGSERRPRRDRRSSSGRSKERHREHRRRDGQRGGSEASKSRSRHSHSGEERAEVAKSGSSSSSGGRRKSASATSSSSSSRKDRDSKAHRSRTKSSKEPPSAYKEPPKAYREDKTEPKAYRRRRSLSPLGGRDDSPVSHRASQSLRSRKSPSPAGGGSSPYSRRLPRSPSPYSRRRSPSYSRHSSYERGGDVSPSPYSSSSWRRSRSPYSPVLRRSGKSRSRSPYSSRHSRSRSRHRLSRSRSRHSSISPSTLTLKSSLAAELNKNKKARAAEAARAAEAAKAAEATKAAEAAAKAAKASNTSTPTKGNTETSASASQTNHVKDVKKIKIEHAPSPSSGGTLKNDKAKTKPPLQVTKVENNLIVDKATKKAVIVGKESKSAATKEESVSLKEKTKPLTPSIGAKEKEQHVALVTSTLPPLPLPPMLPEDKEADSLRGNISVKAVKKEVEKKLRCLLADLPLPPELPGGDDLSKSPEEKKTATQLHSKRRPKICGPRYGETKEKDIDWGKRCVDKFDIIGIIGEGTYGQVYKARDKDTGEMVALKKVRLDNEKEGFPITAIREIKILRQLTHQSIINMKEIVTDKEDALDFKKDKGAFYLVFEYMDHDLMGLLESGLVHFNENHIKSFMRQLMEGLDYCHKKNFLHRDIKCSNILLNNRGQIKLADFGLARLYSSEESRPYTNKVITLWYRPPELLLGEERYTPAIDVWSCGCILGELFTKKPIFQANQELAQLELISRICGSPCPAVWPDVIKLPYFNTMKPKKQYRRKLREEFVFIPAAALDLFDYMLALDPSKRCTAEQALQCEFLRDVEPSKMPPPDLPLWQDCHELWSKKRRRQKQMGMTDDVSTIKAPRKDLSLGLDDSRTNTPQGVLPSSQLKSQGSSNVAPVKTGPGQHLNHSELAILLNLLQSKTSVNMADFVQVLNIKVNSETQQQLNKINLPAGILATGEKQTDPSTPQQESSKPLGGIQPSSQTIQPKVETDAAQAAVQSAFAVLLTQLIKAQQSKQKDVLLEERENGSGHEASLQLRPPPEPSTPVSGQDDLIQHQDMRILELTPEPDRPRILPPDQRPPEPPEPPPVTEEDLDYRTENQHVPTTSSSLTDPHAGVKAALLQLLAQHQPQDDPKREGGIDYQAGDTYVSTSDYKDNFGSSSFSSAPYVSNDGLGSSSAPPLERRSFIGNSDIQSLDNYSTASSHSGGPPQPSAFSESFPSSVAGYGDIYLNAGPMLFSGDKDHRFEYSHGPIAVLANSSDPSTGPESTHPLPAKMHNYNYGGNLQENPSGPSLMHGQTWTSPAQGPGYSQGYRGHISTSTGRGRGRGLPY
The target in test [27] is T6, Cyclin-dependent kinase 13. The experiment in a line: Selectivity interaction (Western blot assay (pull-down blockage of CDK7-cyclin H using lysates from Jurkat cells)) EUB0001635a CDK13. In kind it is subcellular, lysate.
Test [28] has as its target T6, Cyclin-dependent kinase 13. The experiment in a line: Selectivity interaction (Western blot assay (pull-down blockage of CDK7-cyclin H using lysates from HAP1 cells)) EUB0001635a CDK13. The class given is cell-based.

T4 sequence (Q9NYV4 whole entry): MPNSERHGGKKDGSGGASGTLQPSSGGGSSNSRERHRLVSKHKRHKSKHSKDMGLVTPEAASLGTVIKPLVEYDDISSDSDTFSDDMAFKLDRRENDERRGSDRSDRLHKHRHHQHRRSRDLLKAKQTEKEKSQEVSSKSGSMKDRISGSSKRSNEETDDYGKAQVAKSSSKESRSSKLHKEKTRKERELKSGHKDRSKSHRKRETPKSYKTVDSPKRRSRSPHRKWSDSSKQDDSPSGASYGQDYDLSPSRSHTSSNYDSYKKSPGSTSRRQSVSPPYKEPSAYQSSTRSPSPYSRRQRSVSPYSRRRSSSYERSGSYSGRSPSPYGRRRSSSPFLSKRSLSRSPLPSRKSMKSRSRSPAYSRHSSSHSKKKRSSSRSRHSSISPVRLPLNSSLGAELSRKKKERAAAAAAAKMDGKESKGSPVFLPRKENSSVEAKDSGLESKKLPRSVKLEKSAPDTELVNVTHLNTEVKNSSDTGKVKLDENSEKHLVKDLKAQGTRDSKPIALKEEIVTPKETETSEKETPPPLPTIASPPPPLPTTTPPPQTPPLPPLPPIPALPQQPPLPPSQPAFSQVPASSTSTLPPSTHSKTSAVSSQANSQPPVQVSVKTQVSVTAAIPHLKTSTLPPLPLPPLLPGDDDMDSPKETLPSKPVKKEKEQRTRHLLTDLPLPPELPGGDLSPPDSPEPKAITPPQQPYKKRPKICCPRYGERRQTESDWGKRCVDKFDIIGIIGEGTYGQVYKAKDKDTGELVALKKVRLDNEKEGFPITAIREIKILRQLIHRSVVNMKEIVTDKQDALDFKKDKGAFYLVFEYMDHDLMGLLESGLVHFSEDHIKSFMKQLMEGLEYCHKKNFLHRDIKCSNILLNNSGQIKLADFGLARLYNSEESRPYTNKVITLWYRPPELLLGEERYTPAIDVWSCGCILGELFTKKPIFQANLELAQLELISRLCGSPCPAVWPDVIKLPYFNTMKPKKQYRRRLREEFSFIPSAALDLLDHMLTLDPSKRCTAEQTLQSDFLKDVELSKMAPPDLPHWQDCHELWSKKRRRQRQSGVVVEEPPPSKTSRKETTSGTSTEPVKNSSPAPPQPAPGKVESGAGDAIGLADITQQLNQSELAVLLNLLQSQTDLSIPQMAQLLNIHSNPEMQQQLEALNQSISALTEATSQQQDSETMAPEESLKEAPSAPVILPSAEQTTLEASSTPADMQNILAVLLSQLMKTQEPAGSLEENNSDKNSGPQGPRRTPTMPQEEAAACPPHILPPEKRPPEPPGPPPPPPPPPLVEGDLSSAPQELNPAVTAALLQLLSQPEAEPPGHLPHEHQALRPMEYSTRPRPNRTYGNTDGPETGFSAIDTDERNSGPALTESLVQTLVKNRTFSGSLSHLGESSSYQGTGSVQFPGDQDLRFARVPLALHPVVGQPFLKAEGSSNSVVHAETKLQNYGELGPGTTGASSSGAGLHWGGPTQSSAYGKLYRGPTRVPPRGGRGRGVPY
T5 sequence (P50613 whole entry): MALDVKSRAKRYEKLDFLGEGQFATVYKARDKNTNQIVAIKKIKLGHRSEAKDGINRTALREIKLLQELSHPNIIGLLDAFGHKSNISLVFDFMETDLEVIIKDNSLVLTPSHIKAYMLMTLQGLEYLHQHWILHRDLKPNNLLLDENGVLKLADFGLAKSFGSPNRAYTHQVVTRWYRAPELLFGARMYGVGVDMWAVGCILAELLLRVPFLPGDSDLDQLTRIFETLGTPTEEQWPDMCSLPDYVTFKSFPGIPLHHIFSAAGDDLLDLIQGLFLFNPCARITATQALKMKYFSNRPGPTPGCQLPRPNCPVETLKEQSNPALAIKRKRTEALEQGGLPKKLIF
T2 sequence (P14416 whole entry): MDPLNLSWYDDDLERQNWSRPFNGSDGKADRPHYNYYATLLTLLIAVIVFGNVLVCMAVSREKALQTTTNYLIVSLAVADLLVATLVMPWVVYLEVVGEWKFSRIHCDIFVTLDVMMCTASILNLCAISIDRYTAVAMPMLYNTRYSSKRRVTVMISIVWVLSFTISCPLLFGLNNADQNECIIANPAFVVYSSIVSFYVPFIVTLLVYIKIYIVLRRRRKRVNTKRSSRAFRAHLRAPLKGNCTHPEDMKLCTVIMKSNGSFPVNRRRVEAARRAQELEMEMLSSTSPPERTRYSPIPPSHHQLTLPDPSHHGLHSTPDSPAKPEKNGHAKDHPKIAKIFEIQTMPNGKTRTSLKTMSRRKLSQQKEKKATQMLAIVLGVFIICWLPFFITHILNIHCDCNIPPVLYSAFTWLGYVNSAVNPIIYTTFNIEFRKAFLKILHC
Sequence of Cyclin-dependent kinase 5 (Q00535 whole entry, looked up): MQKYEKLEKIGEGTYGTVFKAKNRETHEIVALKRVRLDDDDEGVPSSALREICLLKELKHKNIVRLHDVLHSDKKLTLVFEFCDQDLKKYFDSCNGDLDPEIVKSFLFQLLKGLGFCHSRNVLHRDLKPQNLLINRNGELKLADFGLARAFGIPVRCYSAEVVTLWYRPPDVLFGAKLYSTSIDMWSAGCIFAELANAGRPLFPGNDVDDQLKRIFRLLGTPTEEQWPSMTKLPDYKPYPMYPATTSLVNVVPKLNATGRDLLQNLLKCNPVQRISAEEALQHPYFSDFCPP
Sequence of Cyclin-dependent kinase 7 (Homo sapiens, UniProt P50613, C312S) (P50613 2-346 C312S limits assumed): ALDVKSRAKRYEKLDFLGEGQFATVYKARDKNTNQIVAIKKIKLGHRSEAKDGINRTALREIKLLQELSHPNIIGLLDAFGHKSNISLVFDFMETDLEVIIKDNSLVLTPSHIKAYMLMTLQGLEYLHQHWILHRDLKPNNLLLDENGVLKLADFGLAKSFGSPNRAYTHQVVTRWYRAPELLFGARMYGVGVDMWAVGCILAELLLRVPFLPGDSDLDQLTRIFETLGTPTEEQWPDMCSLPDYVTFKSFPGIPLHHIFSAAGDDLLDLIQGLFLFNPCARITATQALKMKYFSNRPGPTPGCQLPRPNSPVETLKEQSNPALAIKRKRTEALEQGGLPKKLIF
Sequence of CDK5/Cyclin D3 (Homo sapiens) (P30281 whole entry, looked up): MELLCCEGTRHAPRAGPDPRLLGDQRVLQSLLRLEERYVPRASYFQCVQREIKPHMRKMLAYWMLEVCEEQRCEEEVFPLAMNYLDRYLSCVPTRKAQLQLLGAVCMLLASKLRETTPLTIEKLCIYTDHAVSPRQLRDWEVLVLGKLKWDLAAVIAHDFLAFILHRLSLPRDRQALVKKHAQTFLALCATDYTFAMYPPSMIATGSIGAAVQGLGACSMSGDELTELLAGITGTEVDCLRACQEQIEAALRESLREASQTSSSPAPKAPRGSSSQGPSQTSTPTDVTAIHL
Sequence of CDK5/Cyclin D3 (Homo sapiens) (Q00535 whole entry, looked up): as the sequence (Q00535 whole entry, looked up) above

For the molecule `Cc1n[nH]c2ncc(C(=O)N3CCC[C@H]3c3ccc(Cl)cc3)cc12`, the % of inhibition in test [1] is -1%; in test [2] it was 7%; in test [5] it was -1%; in test [6] it was 12%; in test [7] it was 18%; in test [8] it was 48%. In addition, the % of inhibition in [9] is -7%; in [10], 47%; in [11], 2%; in [13], 2%; at D(2) dopamine receptor [15], 54%; in test [16], 13%. The % of inhibition in [18] was 39%. The half-inhibitory concentration (IC50) in test [3] is 4 nM; in test [4], over 30000 nM; on D(2) dopamine receptor [12], 8500 nM; in test [14], 4 nM; in test [17], over 30000 nM.

`C=CC(=O)Nc1ccc(C(=O)Nc2n[nH]c3c2CN(C(=O)N[C@H](CN(C)C)c2ccccc2)C3(C)C)cc1`: the 50% inhibitory concentration (IC50) was over 1000 nM in test [19]; over 30000 nM in [20]; over 10000 nM in test [21]; over 1000 nM in test [22]; over 10000 nM in test [24]; over 30000 nM in test [25]. Moreover, the concentration for half-maximal inhibition (IC50) in test [26] is over 10000 nM; in [27] it was over 1000 nM; in test [28] it was over 1000 nM. In [23], the inhibition constant (Ki) is 1.9 nM.
